Measurements from article PMC4783263 (Molecular pharmaceutics, 2016).
Converted amounts (≈) assume the structure as drawn. Like-named read-outs stand apart in the source and are kept apart here.

Experiments:
[1] = test system: SK-OV-3 cells; conditions: read-out: IC50 on SK-OV-3 cells; ABZ formulated in ethanol; cited from earlier work
[2] = test system: SKHEP-1 (human liver adenocarcinoma) xenografts; conditions: ABZ in sesame oil, xenografts on the flank of mice; cited from earlier work
[3] = test system: OVCAR-3 (human ovarian adenocarcinoma); conditions: 150 mg/kg of ABZ 3 times a week for 4 weeks through IP; cited from earlier work
[4] = test system: glioblastoma multiforme; conditions: daily oral doses (50 and 150 mg/kg) of ABZ tablets mixed with 50% sesame oil; cited from earlier work
[5] = mice, repeated oral dosing of 30–40 mg/kg/day for 4–90 days; cited from earlier work
[6] = test system: Salmonella typhimurium TA100; assay: Ames test; conditions: TA 100, −S9, 1.5 µg/plate
[7] = test system: Salmonella typhimurium TA1535; assay: Ames test; conditions: TA 1535, −S9, 1.5 µg/plate
[8] = cited from earlier work
[9] = in vivo; cited from earlier work
[10] = parameters: species or system Swiss Webster mice; conditions: mouse, in vivo; for AUC / Cmax / tmax: 3.2 mg/kg

CCCSc1ccc2nc(NC(=O)OC)[nH]c2c1 [ABZ, Albendazole]
IC50 [1]: 3.88 µM | daily oral dose required to see an antitumor effect [2]: 300 mg/kg | malignant ascites (in words) [3]: suppression of malignant ascites was observed | mouse survival (in words) [4]: moderate improvements in mouse survival | toxicity (in words) [5]: no significant signs of toxicity

[N-]=[N+]=[N-].[Na+] [Sodium azide, Sodium Azide, reference compound]
revertant colonies, positive control [6]: Sodium azide 167 ± 34 colonies | revertant colonies, positive control ([6]; listed as sodium azide): 167 colonies | revertant colonies, positive control [7]: Sodium azide 232 ± 6 colonies | revertant colonies, positive control ([7]; listed as sodium azide): 232 colonies

O=C1N2CN3C(=O)N4CN5C(=O)N6CN7C(=O)N8CN9C(=O)N%10CN%11C(=O)N%12CN%13C(=O)N%14CN1C1C2N2CN%15C(=O)N(CN%16C(=O)N(CN%17C(=O)N(CN%18C(=O)N(CN%19C(=O)N(CN%20C(=O)N(CN1C2=O)C%14C%13%20)C%12C%11%19)C%10C9%18)C8C7%17)C6C5%16)C4C3%15 (stereo not shown) [CB[7]]
solubility in pure water ([8]; reported by Kim): 20 to 30 mM | solubility in pure water ([8]; reported by Nau): 5 mM (≈ 5.81 mg/mL)

O=C(O)CCSC[C@H]1O[C@@H]2O[C@H]3[C@H](O)[C@@H](O)[C@@H](O[C@H]4[C@H](O)[C@@H](O)[C@@H](O[C@H]5[C@H](O)[C@@H](O)[C@@H](O[C@H]6[C@H](O)[C@@H](O)[C@@H](O[C@H]7[C@H](O)[C@@H](O)[C@@H](O[C@H]8[C@H](O)[C@@H](O)[C@@H](O[C@H]9[C@H](O)[C@@H](O)[C@@H](O[C@H]1[C@H](O)[C@H]2O)O[C@@H]9CSCCC(=O)O)O[C@@H]8CSCCC(=O)O)O[C@@H]7CSCCC(=O)O)O[C@@H]6CSCCC(=O)O)O[C@@H]5CSCCC(=O)O)O[C@@H]4CSCCC(=O)O)O[C@@H]3CSCCC(=O)O [sugammadex]
effect on QT interval (in words) [9]: no relevant effects of the compound on QT interval

CCCS(=O)(=O)c1ccc2nc(NC(=O)OC)[nH]c2c1 [ABZSO2, Albendazole sulfone]
Absolute Bioavailability [10]: 81% | AUC ([10]; ip): 2380 ng·h/mL | Cmax ([10]; ip): 410 ± 70 ng/mL | tmax ([10]; ip): 2 h | AUC ([10]; iv): 2940 ng·h/mL | Cmax ([10]; iv): 500 ± 90 ng/mL | tmax ([10]; iv): 2 h
